{
  "source": "BindingDB's records for doi:10.1186/1471-2091-12-59",
  "about": "(Ghent University, 2011)",
  "key": {"Heme-binding protein A [1]": {"target": "T1, Heme-binding protein A (Glaesserella parasuis, UniProt B8F653)", "T1 sequence (B8F653 whole entry)": "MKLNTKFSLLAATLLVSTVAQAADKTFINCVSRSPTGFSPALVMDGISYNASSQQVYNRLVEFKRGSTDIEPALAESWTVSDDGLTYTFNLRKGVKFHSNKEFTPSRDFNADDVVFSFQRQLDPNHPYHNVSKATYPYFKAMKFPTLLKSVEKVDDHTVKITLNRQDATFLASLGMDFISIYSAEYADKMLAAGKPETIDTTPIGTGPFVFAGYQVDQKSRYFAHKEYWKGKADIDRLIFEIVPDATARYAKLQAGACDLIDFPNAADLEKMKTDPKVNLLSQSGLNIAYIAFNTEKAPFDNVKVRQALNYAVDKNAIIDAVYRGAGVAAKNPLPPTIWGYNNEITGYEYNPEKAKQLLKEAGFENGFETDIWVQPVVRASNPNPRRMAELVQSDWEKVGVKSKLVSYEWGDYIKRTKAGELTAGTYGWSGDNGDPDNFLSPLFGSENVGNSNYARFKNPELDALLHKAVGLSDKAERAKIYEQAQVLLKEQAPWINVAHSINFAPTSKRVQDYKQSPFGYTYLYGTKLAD", "test": "Isothermal Titration Calorimetry (ITC)", "settings": "pH 7.4; 37 °C", "experimental": "(§1) Purified test proteins were dialyzed overnight against 10 mM Tris-HCl, pH 7.4, at 4°C. The resultant dialysis buffer was then used to dissolve the test compounds. Titrations were always preceded by an initial injection of 3 μL and were carried out using 10-μL injections applied 300 s apart. The sample was stirred at a speed of 400 rpm throughout."}, "Heme-binding protein A [2]": {"target": "Heme-binding protein A (Actinobacillus pleuropneumoniae serovar 9 str. CVJ13261, UniProt A3N3U8)", "sequence (A3N3U8 whole entry)": "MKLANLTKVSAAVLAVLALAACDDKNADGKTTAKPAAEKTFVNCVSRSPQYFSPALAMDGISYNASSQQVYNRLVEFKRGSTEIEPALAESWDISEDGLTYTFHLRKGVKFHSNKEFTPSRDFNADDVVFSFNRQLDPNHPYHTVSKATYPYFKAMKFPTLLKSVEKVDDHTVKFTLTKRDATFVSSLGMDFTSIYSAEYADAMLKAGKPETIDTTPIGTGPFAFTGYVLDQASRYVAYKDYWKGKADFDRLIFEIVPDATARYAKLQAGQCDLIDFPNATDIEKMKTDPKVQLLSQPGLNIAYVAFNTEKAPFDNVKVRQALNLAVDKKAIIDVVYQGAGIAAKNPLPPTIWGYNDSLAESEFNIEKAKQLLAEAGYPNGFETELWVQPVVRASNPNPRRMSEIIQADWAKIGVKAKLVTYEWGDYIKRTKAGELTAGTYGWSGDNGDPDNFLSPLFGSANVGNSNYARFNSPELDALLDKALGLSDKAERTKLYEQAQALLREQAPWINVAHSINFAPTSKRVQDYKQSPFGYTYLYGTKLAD", "test": "Isothermal Titration Calorimetry (ITC)", "settings": "pH 7.4; 37 °C", "experimental": "as §1"}},
  "data": [
    {"smiles": "N[C@@H](CCC(=O)N[C@@H](CS)C(=O)NCC(=O)O)C(=O)O", "note": "[GLUTATHIONE]", "values": [
      {"measurement": "Kd", "setting": "Heme-binding protein A [1]", "value": 1.9, "unit": "µM"}
    ]},
    {"smiles": "CSC[C@H](NC(=O)CC[C@H](N)C(=O)O)C(=O)NCC(=O)O", "note": "[S-methylglutathione]", "values": [
      {"measurement": "Kd", "setting": "Heme-binding protein A [2]", "value": 1.17, "unit": "µM"},
      {"measurement": "Kd", "setting": "Heme-binding protein A [1]", "value": 0.9, "unit": "µM"}
    ]}
  ]
}
